The values below are quoted from earlier work in patent US10995093B2, “Synthesis of 2′-fluoro-6′-methylene-carbocyclic adenosine (FMCA) and 2′-fluoro-6′methylene-carbocyclic guanosine (FMCG)” (UNIVERSITY OF GEORGIA RESEARCH FOUNDATION, INC., priority 2016, dated 2021).

Structures are written as SMILES. Entries after “also recorded” stand apart in the source; their conditions may differ.

In data set [1] the test system is lamivudine/entecavir-resistant clone (L180M+M204V+S202G).
The conditions of data set [2]: no significant toxicity observed up to 100 μM.
Data set [3] deals with lamivudine, adefovir, and double lamivudine/entecavir-resistant mutants. The note with it: drug-resistant mutants.
The test system of data set [4] is wild-type HBV.

For the compound `C=C1[C@@H](n2cnc3c(N)ncnc32)[C@@H](F)[C@H](O)[C@H]1CO` [FMCA, (1R,3R,5R)-3-(6-amino-9H-purin-9-yl)-2-fluoro-5-(hydroxymethyl)-4-methylenecyclopentanol], the “antiviral activity against lamivudine/entecavir-resistant clone” value in data set [1] is on record as “potential antiviral activity”. The “mitochondrial and cellular toxicity, concentration up to which no significant toxicity was observed” value in data set [2] was greater than 100 µM. Further, in data set [3], the “activity against lamivudine, adefovir, and double lamivudine/entecavir-resistant mutants” value is listed as “significant activity”. The “activity against wild-type HBV” value in data set [4] is on record as “significant activity; also recorded: potential antiviral activity”.
